{"source": "patent US12578343B2", "about": "“Selective ACKR3 modulators and uses thereof” (Luxembourg Institute of Health (LIH), priority 2019, dated 2026)", "key": {"smNPCs": {"test_system": "smNPCs", "assay": "Uptake of labelled dynorphin A (1-13) by smNPCs, imaging flow cytometry", "format": "cell-based, human", "details": "3 μM, 15 minutes pre-treatment", "protocol": "U87 cells derived from human brain glioblastoma were obtained through the NIH AIDS Reagent Program from Dr. Deng and Dr. Littman. U87 stably expressing ACKR3 and CXCR4 were generated as previously described in Szpakowska, M. et al. Different contributions of chemokine N-terminal features attest to a different ligand binding mode and a bias towards activation of ACKR3/CXCR7 compared with CXCR4 and CXCR3. Br J Pharmacol 175, 1419-1438 (2018). U87 cells were grown in Dulbecco's modified Eagle medium (DMEM) supplemented with 15% foetal bovine serum and penicillin/streptomycin (100 Units/ml and 100 μg/ml). U87-ACKR3 and U87-CXCR4 were maintained under puromycin (1 μg/ml) selective pressure. smNPCs (small molecule neural precursor cells) derived from a healthy donor (C1-1) whose informed consent was obtained, were grown on Geltrex™-coated surface in N2B27 medium supplemented with 0.5 μM Purmorphamine, 3 μM CHIR 99021 and 150 μM ascorbic acid. N2B27 medium consisted of DMEM/F12 and NeuroBasal medium 50:50 with 0.5% N2 supplement, 1% B27 supplement lacking vitamin A, 1% GlutaMAX and 1% penicilin/streptomycin. Medium was renewed every other day.\nCells were distributed into 96-well plates (2×10^5 cells/well in Opti-MEM for U87 and U87-ACKR3 and 3×10^5 cells/well in N2B27 medium for smNPCs). […] For comparison of labelled opioid peptide-uptake by ACKR3 or classical opioid receptors, 1.2×10^6 U87 cells were seeded in 10-cm dishes and transfected 48 hours later with 4 μg pcDNA3.1 plasmid encoding ACKR3 or KOR, MOR or NOP. 48 hours post transfection, cells were harvested and treated as described above. Dead cells were excluded using Zombie NIR or Zombie Green viability dye (BioLegend) for FAM-labelled peptides and Cy5-labelled peptides, respectively. Images of 1×10^4 in-focus, living single cells were acquired with an ImageStream MKII imaging flow cytometer (Amnis) using 40× magnification (60× magnification for smNPCs). Samples were analysed using Ideas6.2 software. The number of spots per cell was determined using a mask-based software wizard."}, "[1]": {"test_system": "rat locus coeruleus neurons", "format": "cell-based", "protocol": "1.9. Ex Vivo Rat Neuron Depolarization\nAdult male Wistar rats (6 to 8-week old) were housed at room temperature in groups of three or four with a 12:12 hour light-dark cycle. All animals had access to ad libitum food and water. All procedures were carried out in accordance with guidelines of the European Communities Council Directive of 24 Nov. 1986 (86609EE) and were accepted by the Ethics Committee for Animal Use of the University of Liège (protocol 2061). All efforts were made to minimize animal suffering.\n1.9.2. Brain Explant Preparation and Recording Procedures\nRats were anaesthetized with chloral hydrate (400 mg/kg, i.p.) and placed under a cap with oxygenated air (95% O2, 5% CO2) two minutes prior to decapitation. After decapitation, the brain was rapidly removed and placed in ice cold (˜2° C.) oxygenated artificial cerebrospinal fluid (aCSF) of the following composition: NaCl 130 mM, KCl 3.5 mM, NaH2PO4 1.25 mM, NaHCO3 24 mM, Glucose 10 mM, CaCl2 2 mM, MgSO4 1.25 mM. A block of tissue containing the pons was placed in a vibrating blade microtome (Vibratome 1000 Plus, Sectioning System) and a slice containing the locus coeruleus (LC) immediately rostral to the fourth ventricle and the VIIth nerve, used as anatomical landmarks, was cut coronally (400 μm thick). The slice was placed on a nylon mesh in a recording chamber (volume: 0.5 ml) where it was superfused by oxygenated aCSF (34.0±0.5° C.) at a rate of 2 to 3 ml/min. The LC was recognized as a translucent region during transillumination, lateral to the fourth ventricle. All experiments were performed in oxygenated aCSF with synaptic blockers consisting of 10 μM CNQX, 10 μM SR95531, 1 μM MK801, and 1 μM CGP55845, which block AMPA/Kainate, GABAA, NMDA, and GABAB receptors, respectively. This ensured that the spontaneous firing of the neurons was only due to its endogenous pace making.\nExtracellular single cell recordings of LC neurons were performed with glass microelectrodes filled with aCSF (resistance 10-20 MΩ). Signals were passed through an impedance adapter and were amplified 1000× using a home-made amplifier. […] Data were collected and analysed with the Spike 2 software (Cambridge Electronic Design). […] The duration of the extracellularly recorded action potentials was 2-3 ms. Drugs and peptides were applied for at least 10 minutes.\nThe mean firing rate over 1 minute was calculated during each condition. Next, the inhibition of firing by the peptides and drugs used (LIH383 and dynorphin) was quantified as the % of total inhibition. For this purpose, present inventors considered the mean firing rate during the last minute of each condition (control, LIH383 alone, LIH383 plus a given concentration of dynorphin)."}}, "data": [{"smiles": "CSCC[C@H](NC(=O)[C@H](Cc1ccccc1)NC(=O)CNC(=O)CNC(=O)[C@@H](N)Cc1ccccc1)C(=O)N[C@@H](CCCNC(=N)N)C(=O)N[C@@H](CCCNC(=N)N)C(=O)N[C@@H](CCCCN)C(N)=O", "note": "[LIH383]", "values": [{"measurement": "effect of pretreatment on uptake of labelled dynorphin A (1-13) by smNPCs", "setting": "smNPCs", "result": "significantly reduced"}, {"measurement": "effect of pretreatment on dynorphin A-induced depolarization inhibition", "setting": "[1]; LIH383 1 or 3 μM", "result": "significant increase of depolarization inhibition and an apparent improved potency of dynorphin A towards its classical receptors"}, {"measurement": "inhibition of neuronal firing", "setting": "[1]; concentration as high as 3 μM", "result": "did not lead to significant inhibition of neuronal firing"}]}]}
